Assay results published in patent US20210395239A1 (Hoffmann-La Roche Inc., priority 2018, published 2021).

biological target: T1, hTLR9 (Homo sapiens, UniProt Q9NR96); assay: HEK293-Blue-hTLR-9 cells assay (SEAP reporter, ODN2006 stimulation); assay type: cell-based; set-up: host or cells: HEK293 (HEK-Blue hTLR9); details: HEK293-Blue-hTLR9 cells, ODN2006, 20 hrs; read-out: HEK/hTLR9 IC50
T1 sequence (Q9NR96 26-1032): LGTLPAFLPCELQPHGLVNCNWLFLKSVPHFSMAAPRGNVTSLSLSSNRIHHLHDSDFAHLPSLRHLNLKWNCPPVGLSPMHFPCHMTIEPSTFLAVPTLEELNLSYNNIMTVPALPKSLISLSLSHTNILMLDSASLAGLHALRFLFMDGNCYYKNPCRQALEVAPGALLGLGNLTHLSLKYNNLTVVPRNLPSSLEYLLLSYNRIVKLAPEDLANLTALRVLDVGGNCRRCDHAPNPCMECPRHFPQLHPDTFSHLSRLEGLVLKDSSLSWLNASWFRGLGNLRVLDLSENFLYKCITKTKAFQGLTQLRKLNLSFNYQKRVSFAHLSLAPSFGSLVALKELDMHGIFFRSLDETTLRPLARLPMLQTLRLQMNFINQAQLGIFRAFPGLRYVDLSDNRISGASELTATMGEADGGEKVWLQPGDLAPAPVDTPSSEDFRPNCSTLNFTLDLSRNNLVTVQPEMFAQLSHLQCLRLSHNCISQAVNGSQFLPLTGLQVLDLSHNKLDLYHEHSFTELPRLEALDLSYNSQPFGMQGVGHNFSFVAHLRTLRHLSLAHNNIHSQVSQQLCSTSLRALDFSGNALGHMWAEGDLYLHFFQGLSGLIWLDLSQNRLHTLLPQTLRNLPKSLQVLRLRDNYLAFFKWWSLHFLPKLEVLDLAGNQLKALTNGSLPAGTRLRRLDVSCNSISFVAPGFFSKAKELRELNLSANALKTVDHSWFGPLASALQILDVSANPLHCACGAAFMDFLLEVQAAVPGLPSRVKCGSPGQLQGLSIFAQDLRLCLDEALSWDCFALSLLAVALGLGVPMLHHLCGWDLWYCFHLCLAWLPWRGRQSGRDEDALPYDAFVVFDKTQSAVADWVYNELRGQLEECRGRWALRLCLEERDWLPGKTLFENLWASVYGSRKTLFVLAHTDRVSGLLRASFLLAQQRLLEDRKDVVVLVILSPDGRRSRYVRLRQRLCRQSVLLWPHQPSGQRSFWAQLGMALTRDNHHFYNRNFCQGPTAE
In short: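 HEK293-Blue-hTLR9 cells with NF-κB/AP-1-driven SEAP reporter treated with serially diluted compound (1% DMSO final) plus ODN2006 for 20 h at 37 °C. Supernatant SEAP measured with QUANTI-Blue, 2 h at 37 °C, absorbance 620–655 nm; antagonism seen as reduced reporter signal.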

Row | IC50 [nM] | Structure (SMILES)
1 | 72 | Cc1cc(N2CCN(C[C@H]3CN(c4ccc(C#N)c5ncccc45)C[C@@H](C)O3)CC2)nc(N2C[C@H](N)C[C@H](F)C2)n1 (relative stereo) [Example 74, 5-[(2R,6S)-2-methyl-6-[[4-[6-methyl-2-[cis-3-amino-5-fluoro-1-piperidyl]pyrimidin-4-yl]piperazin-1-yl]methyl]morpholin-4-yl]quinoline-8-carbonitrile]
2 | 57 | Cc1cc(N2CCN(C[C@H]3CN(c4ccc(C#N)c5ncccc45)C[C@@H](C)O3)CC2)nc(N2C[C@H](N)C[C@@H](F)C2)n1 (relative stereo) [Example 75, 5-[(2R,6S)-2-methyl-6-[[4-[6-methyl-2-[trans-3-amino-5-fluoro-1-piperidyl]pyrimidin-4-yl]piperazin-1-yl]methyl]morpholin-4-yl]quinoline-8-carbonitrile]
3 | 54 | CO[C@H]1CN(c2nc(C)cc(N3CCN(C[C@H]4CN(c5ccc(C#N)c6ncccc56)C[C@@H](C)O4)CC3)n2)C[C@@H]1N (single isomer, unassigned) [Example 69A]
4 | 70 | CO[C@@H]1CN(c2nc(C)cc(N3CCN(C[C@H]4CN(c5ccc(C#N)c6ncccc56)C[C@@H](C)O4)CC3)n2)C[C@H]1N (single isomer, unassigned) [Example 69B]
5 | 104 | Cc1cc(N2CCN(C[C@H]3CN(c4ccc(C#N)c5ncccc45)C[C@@H](C)O3)CC2)nc(N2CC[C@@H](F)C(N)C2)n1 (single isomer, unassigned) [Example 84]
6 | 71 | COC1CN(c2nc(C)cc(N3CCN(C[C@H]4CN(c5ccc(C#N)c6ncccc56)C[C@@H](C)O4)CC3)n2)CC1N (single isomer, unassigned) [Example 88]
7 | 80 | COC1CNCC1Nc1nc(C)cc(N2CCN(C[C@H]3CN(c4ccc(C#N)c5ncccc45)C[C@@H](C)O3)CC2)n1 (stereo in doubt) [Example 70, 5-[(2S,6R)-2-[[4-[2-[[(3R,4R)-4-methoxypyrrolidin-3-yl]amino]-6-methyl-pyrimidin-4-yl]piperazin-1-yl]methyl]-6-methyl-morpholin-4-yl]quinoline-8-carbonitrile]
8 | 69 | Cc1cc(N2CCN(C[C@H]3CN(c4ccc(C#N)c5ncccc45)C[C@@H](C)O3)CC2)nc(NC2CNCC2F)n1 (stereo in doubt) [Example 73, 5-[(2S,6R)-2-[[4-[2-[[(3S,4R)-4-fluoropyrrolidin-3-yl]amino]-6-methyl-pyrimidin-4-yl]piperazin-1-yl]methyl]-6-methyl-morpholin-4-yl]quinoline-8-carbonitrile]
9 | 56 | Cc1cc(N2CCN(C[C@H]3CN(c4ccc(C#N)c5ncccc45)C[C@@H](C)O3)CC2)nc(N2CC[C@@H](N)C(F)C2)n1 (stereo in doubt) [Example 82, 5-[(2S,6R)-2-[[4-[2-[(3R,4R)-4-amino-3-fluoro-1-piperidyl]-6-methyl-pyrimidin-4-yl]piperazin-1-yl]methyl]-6-methyl-morpholin-4-yl]quinoline-8-carbonitrile]
10 | 54 | CO[C@H]1CN(c2nc(C)cc(N3CCN(C[C@H]4CN(c5ccc(C#N)c6ncccc56)C[C@@H](C)O4)CC3)n2)CCC1N (stereo in doubt) [Example 90, 5-[(2S,6R)-2-[[4-[2-[(3S,4S)-4-amino-3-methoxy-1-piperidyl]-6-methyl-pyrimidin-4-yl]piperazin-1-yl]methyl]-6-methyl-morpholin-4-yl]quinoline-8-carbonitrile]
11 | 66 | Cc1cc(N2CCN(C[C@H]3CN(c4ccc(C#N)c5ncccc45)C[C@@H](C)O3)CC2)nc(N[C@@H]2CNC[C@@H]2F)n1 [Example 71, 5-[(2S,6R)-2-[[4-[2-[[(3R,4S)-4-fluoropyrrolidin-3-yl]amino]-6-methyl-pyrimidin-4-yl]piperazin-1-yl]methyl]-6-methyl-morpholin-4-yl]quinoline-8-carbonitrile]
12 | 46 | CO[C@@H]1CN(c2nc(C)cc(N3CCN(C[C@H]4CN(c5ccc(C#N)c6ncccc56)C[C@@H](C)O4)CC3)n2)C[C@@H]1N [Example 72, 5-[(2S,6R)-2-[[4-[2-[(3S,4R)-3-amino-4-methoxy-pyrrolidin-1-yl]-6-methyl-pyrimidin-4-yl]piperazin-1-yl]methyl]-6-methyl-morpholin-4-yl]quinoline-8-carbonitrile]
13 | 50 | Cc1cc(N2CCN(C[C@H]3CN(c4ccc(C#N)c5ncccc45)C[C@@H](C)O3)CC2)nc(N[C@@H]2CNC[C@H]2F)n1 [Example 76, 5-[(2S,6R)-2-[[4-[2-[[(3R,4R)-4-fluoropyrrolidin-3-yl]amino]-6-methyl-pyrimidin-4-yl]piperazin-1-yl]methyl]-6-methyl-morpholin-4-yl]quinoline-8-carbonitrile]
14 | 56 | Cc1cc(N2CCN(C[C@H]3CN(c4ccc(C#N)c5ncccc45)C[C@@H](C)O3)CC2)nc(N2C[C@@H](N)C[C@@H](F)C2)n1 [Example 77, 5-[(2S,6R)-2-[[4-[2-[(3S,5R)-3-amino-5-fluoro-1-piperidyl]-6-methyl-pyrimidin-4-yl]piperazin-1-yl]methyl]-6-methyl-morpholin-4-yl]quinoline-8-carbonitrile]
15 | 65 | Cc1cc(N2CCN(C[C@H]3CN(c4ccc(C#N)c5ncccc45)C[C@@H](C)O3)CC2)nc(N2CC[C@@H](N)[C@@H](F)C2)n1 [Example 78, 5-[(2S,6R)-2-[[4-[2-[(3S,4R)-4-amino-3-fluoro-1-piperidyl]-6-methyl-pyrimidin-4-yl]piperazin-1-yl]methyl]-6-methyl-morpholin-4-yl]quinoline-8-carbonitrile]
16 | 63 | Cc1cc(N2CCN(C[C@H]3CN(c4ccc(C#N)c5ncccc45)C[C@@H](C)O3)CC2)nc(N2C[C@@H](N)[C@H](F)C2)n1 [Example 79, 5-[(2S,6R)-2-[[4-[2-[(3R,4R)-3-amino-4-fluoro-pyrrolidin-1-yl]-6-methyl-pyrimidin-4-yl]piperazin-1-yl]methyl]-6-methyl-morpholin-4-yl]quinoline-8-carbonitrile]
17 | 120 | Cc1cc(N2CCN(C[C@H]3CN(c4ccc(C#N)c5ncccc45)C[C@@H](C)O3)CC2)nc(N2CC(N)CC(F)(F)C2)n1 (stereo partly drawn) [Example 80, 5-[(2S,6R)-2-[[4-[2-(5-amino-3,3-difluoro-1-piperidyl)-6-methyl-pyrimidin-4-yl]piperazin-1-yl]methyl]-6-methyl-morpholin-4-yl]quinoline-8-carbonitrile]
18 | 46 | Cc1cc(N2CCN(C[C@H]3CN(c4ccc(C#N)c5ncccc45)C[C@@H](C)O3)CC2)nc(N2CCNC(C(C)(C)O)C2)n1 (stereo partly drawn) [Example 81, 5-[(2S,6R)-2-[[4-[2-[3-(1-hydroxy-1-methyl-ethyl)piperazin-1-yl]-6-methyl-pyrimidin-4-yl]piperazin-1-yl]methyl]-6-methyl-morpholin-4-yl]quinoline-8-carbonitrile]
19 | 96 | Cc1cc(N2CCN(C[C@H]3CN(c4ccc(C#N)c5ncccc45)C[C@@H](C)O3)CC2)nc(N2CC[C@@H](F)[C@@H](N)C2)n1 [Example 83, 5-[(2R,6S)-2-methyl-6-[[4-[6-methyl-2-[(3S,4R)-3-amino-4-fluoro-1-piperidyl]-pyrimidin-4-yl]piperazin-1-yl]methyl]morpholin-4-yl]quinoline-8-carbonitrile]
20 | 189 | Cc1cc(N2CCN(C[C@H]3CN(c4ccc(C#N)c5ncccc45)C[C@@H](C)O3)CC2)nc(N2CCC(N)C(F)(F)C2)n1 (stereo partly drawn) [Example 86, 5-[(2S,6R)-2-[[4-[2-(4-amino-3,3-difluoro-1-piperidyl)-6-methyl-pyrimidin-4-yl]piperazin-1-yl]methyl]-6-methyl-morpholin-4-yl]quinoline-8-carbonitrile]
21 | 75 | Cc1cc(N2CCN(C[C@H]3CN(c4ccc(C#N)c5ncccc45)C[C@@H](C)O3)CC2)nc(N2CC(N)C2)n1 [Example 87, 5-[(2S,6R)-2-[[4-[2-(3-aminoazetidin-1-yl)-6-methyl-pyrimidin-4-yl]piperazin-1-yl]methyl]-6-methyl-morpholin-4-yl]quinoline-8-carbonitrile]
22 | 99 | C[C@@H]1CN(c2ccc(C#N)c3ncccc23)C[C@H](CN2CCN(c3ccccc3C3CNCCO3)CC2)O1 (stereo partly drawn) [Example 89, 5-[(2R,6S)-2-methyl-6-[[4-(2-morpholin-2-ylphenyl)piperazin-1-yl]methyl]morpholin-4-yl]quinoline-8-carbonitrile]
